Earlier results as cited in patent publication US20100196443A1, “USE OF CORDYCEPS SPECIES OR EXTRACT THEREOF IN THE EGG PRODUCTION” (A P NUTRIPHARM PTE. LTD., priority 2007, published 2010).

Tested on: RNA cell
Conditions: Siev et al., 1969

Which “nucleolar RNA synthesis” value does the source give for `Nc1ncnc2c1ncn2[C@@H]1O[C@H](CO)C[C@H]1O` [cordycepin, 3-deoxyadenosine] here?
The value was “can inhibit nucleolar RNA synthesis”.
